Laboratory results: patent US20120045522A1 (priority 2010, published 2012)

Legend:
[1] = tested on: Leptosphaeria nodorum (LEPTNO); assay: In vitro fungitoxicity (growth inhibition) assay in copper-minus / copper-plus liquid medium; type: cell-based; details: for inhibition of growth at 0.05 µg/mL: Parastagonospora nodorum, copper-minus medium, light scattering, read-out: LEPTNO % Inhn. Minus Copper Observed; for inhibition of growth at 0.05 µg/mL / LEPTNO % Inhn. Plus Copper Observed: test compound at 0.05 μg/mL, 72 h at 25° C.; for LEPTNO % Inhn. Plus Copper Observed: copper-plus medium (CuCl2.2H2O)
Protocol: In vitro fungitoxicity assays against Leptosphaeria nodorum (LEPTNO) were conducted using the liquid growth medium described by Coursen and Sisler (American Journal of Botany 1960, 47, 541-549) except that copper micronutrient, normally included as CuSO4, was omitted. The medium, termed “copper-minus,” was prepared by dissolving 10 g glucose, 1.5 g K2HPO4, 2 g KH2PO4 and 1 g (NH4)2SO4 in 1 liter of deionized water and treating the solution with 0.5 g Chelex 100 resin (Bio-Rad Analytical grade, 50-100 mesh, sodium form, cat#142-2822) by stirring at room temperature for 1 h. MgSO4.7H2O (0.5 g) was added, and stirring was continued for a further hour. Trace elements (minus CuSO4), and vitamins described by Coursen and Sisler were added from concentrated stock solutions and the entire medium was sterilized by filtration. Medium containing copper was prepared by adding CuCl2.2H2O to the copper-minus medium at 20 μM. Test compounds were dissolved in dimethylsulfoxide (DMSO) at 10 μg/mL and 1 μL aliquots were added to two wells of flat-bottomed 96-well microtiter plates. Copper-minus medium (100 μL) was added to one of the wells and copper-plus medium to the second well. Control wells, included for each medium, received 1 μL DMSO and 100 μL of medium.
LEPTNO was grown on potato dextrose agar in 9 cm diameter petri dishes for 7 days. Sterile deionized water (20 mL) was added to a culture plate and spores suspended by scraping the surface gently with a sterile plastic loop. The resulting suspension was filtered through a double layer of sterile cheesecloth. Filtered spore suspension (5 mL) was centrifuged in a bench centrifuge at 2000 rpm for 2 min. The resulting spore pellet was resuspended in 10 mL sterile deionized water (which had been treated with Chelex 100 resin using 0.5 g resin per liter of water by stirring at room temperature for 1 h), and recentrifuged. The spores were resuspended in copper-minus medium, and the suspension adjusted to 2×10^5 spores per mL. Microtiter plates were inoculated with 100 μL of this spore suspension and the plates incubated at 25° C. for 72 h before assessing fungal growth by measuring light scattering in a NepheloStar plate reader. Growth inhibition was determined by comparing growth in the presence of test compound with growth in control wells lacking test compound.
Results for growth inhibition by test compounds at 0.05 μg/mL in copper-plus medium (% Inhn. Plus Copper Observed) were compared with predicted values (% Inhn. Plus Copper Predicted) that were calculated using the formula set forth by S. R. Colby in Weeds 1967, 15, 20-22 based on results obtained for the same compounds in copper-minus medium (% Inhn. Minus Copper Observed) and the inhibition attributed to copper chloride alone, as determined by comparing growth in copper-minus and copper-plus media without any test compound across experiments. Results illustrate that hydrazones and copper produce a synergistic fungitoxic effect towards LEPTNO.

Phytophthora infestans = type: in vivo; details: hydrazone 50 ppm plus 50 μM CuCl2.2H2O, applied 24 h before inoculation, assessed 7 days after inoculation, tomato plants

| Compound | inhibition of growth at 0.05 µg/mL [1] | LEPTNO % Inhn. Plus Copper Observed [1] | TLB % control (Phytophthora infestans) | melting point | LEPTNO % inhibition attributed to copper chloride alone ([1]; CuCl2 10 μM, no test compound, growth in copper-plus vs copper-minus medium across experiments) |
| --- | --- | --- | --- | --- | --- |
| Cc1ccc(C(=O)N/N=C2\CCc3c(Cl)cc(Cl)c(O)c32)cc1 [Compound 1, 4-Methylbenzoic acid [4,6-dichloro-7-hydroxy-indanylidine]hydrazide] | 15.2% | 96.8% | 78% | 218 to 222 °C |  |
| O=C(N/N=C1\CCc2c(Cl)cc(Cl)c(O)c21)c1ccc(Cl)cc1 [Compound 2] | 16.7% | 96.8% | 78% | 252 to 255 °C |  |
| O=C(N/N=C1\CCc2c(Cl)cc(Cl)c(O)c21)c1ccccc1O [Compound 3] | 24.9% | 97.1% | 55% | 285 to 290 °C |  |
| COc1ccc(C(=O)N/N=C2\CCc3c(Cl)cc(Cl)c(O)c32)cc1 [Compound 4] | 3.5% | 96.6% | 64% | 230 to 233 °C |  |
| O=C(N/N=C1\CCc2c(Cl)cc(Cl)c(O)c21)c1ccc(C(F)(F)F)cc1 [Compound 5] | 20.7% | 97.2% | 53% | 245 to 248 °C |  |
| O=C(N/N=C1\CCc2c(Cl)cc(Cl)c(O)c21)c1ccccc1 [Compound 6] | 23.1% | 94.1% | 95% | 243 to 245 °C |  |
| O=C(N/N=C1\CCc2cccc(O)c21)c1ccccc1 [Compound 7] | 0% | 95.3% | 61% | 192 to 194 °C |  |
| Cc1ccc(C(=O)N/N=C2\CCc3c(Cl)cc(Cl)c(O)c32)c(O)c1 [Compound 8] | 0% | 96.9% | 69% | 284 to 288 °C |  |
| O.O.[Cl][Cu][Cl] [CuCl2, CuCl2.2H2O, reference compound] |  |  |  |  | 13.2% |
